In brackets after ≈: the same amount, converted by molar mass. Activity calls are given as the source filed them. The calls are words filed in the database; no cut-off is given here.
Columns and labels:
Staphylococcus aureus [1] = experiment: Antibacterial activity against Staphylococcus aureus NCIM 5345 after 24 hrs by broth microdilution method; assay type: functional; conditions: NCIM 5345, 24 h
Aspergillus terreus = experiment: Antifungal activity against Aspergillus terreus MTCC 1782 assessed as diameter of inhibition zone after 4 days by agar well diffusion method; assay type: functional
Staphylococcus aureus [2] = experiment: Antibacterial activity against Staphylococcus aureus NCIM 5345 assessed as diameter of inhibition zone measured after 20 hrs by agar well diffusion method; assay type: functional
Bacillus flexus [3] = experiment: Antibacterial activity against Bacillus flexus MTCC 2909 assessed as diameter of inhibition zone measured after 20 hrs by agar well diffusion method; assay type: functional, Priestia flexa
Clostridium sporogenes [4] = experiment: Antibacterial activity against Clostridium sporogenes NICM 2559 assessed as diameter of inhibition zone measured after 20 hrs by agar well diffusion method; assay type: functional
Streptococcus mutans [5] = experiment: Antibacterial activity against Streptococcus mutans MTCC 890 assessed as diameter of inhibition zone measured after 20 hrs by agar well diffusion method; assay type: functional
Pseudomonas sp. = experiment: Antibacterial activity against Pseudomonas sp. NCIM 2872 assessed as diameter of inhibition zone measured after 20 hrs by agar well diffusion method; assay type: functional
Escherichia coli = experiment: Antibacterial activity against Escherichia coli NCIM 2931 assessed as diameter of inhibition zone measured after 20 hrs by agar well diffusion method; assay type: functional
Pseudomonas aeruginosa = experiment: Antibacterial activity against Pseudomonas aeruginosa MTCC 4727 assessed as diameter of inhibition zone measured after 20 hrs by agar well diffusion method; assay type: functional
Klebsiella pneumoniae = experiment: Antibacterial activity against Klebsiella pneumoniae PTCC 1053 assessed as diameter of inhibition zone measured after 20 hrs by agar well diffusion method; assay type: functional
Scopulariopsis sp = experiment: Antifungal activity against Scopulariopsis sp. MTCC 3553 assessed as diameter of inhibition zone after 4 days by agar well diffusion method; assay type: functional
Bacillus flexus [6] = experiment: Antibacterial activity against Bacillus flexus MTCC 2909 after 24 hrs by broth microdilution method; assay type: functional; conditions: Priestia flexa, MTCC 2909, 24 h
Clostridium sporogenes [7] = experiment: Antibacterial activity against Clostridium sporogenes NICM 2559 after 24 hrs by broth microdilution method; assay type: functional; conditions: NICM 2559, 24 h
Streptococcus mutans [8] = experiment: Antibacterial activity against Streptococcus mutans MTCC 890 after 24 hrs by broth microdilution method; assay type: functional; conditions: MTCC 890, 24 h
[9] = test system: Mycobacterium tuberculosis; experiment: Antimycobacterial activity against Mycobacterium tuberculosis H37Rv ATCC 27294 after 7 days by microplate alamar blue assay; assay type: functional; conditions: H37Rv ATCC 27294, 168 h
[10] = Growth inhibition of human HEK293T cells at 50 ug/ml after 72 hrs by MTT assay relative to control; assay type: cell-based, HEK-293T; conditions: read-out: GI
HEK-293T = experiment: Growth inhibition of human HEK293T cells after 72 hrs by MTT assay; assay type: cell-based
[11] = Selectivity index, ratio of IC50 for human HEK293T cells to MIC for Mycobacterium tuberculosis H37Rv ATCC 27294; assay type: toxicity; conditions: read-out: Selectivity Index

Molecule: Clc1nccc2[nH]c(-c3ccccc3)c(CN3CCOCC3)c12
- MIC (Staphylococcus aureus [1]): > 50 mg/L
- diameter of the inhibition zone (DIZ) (Aspergillus terreus): inactive
- diameter of the inhibition zone (DIZ) (Staphylococcus aureus [2]): 10 mm
- diameter of the inhibition zone (DIZ) (Bacillus flexus [3]): 10 mm
- diameter of the inhibition zone (DIZ) (Clostridium sporogenes [4]): 10 mm
- diameter of the inhibition zone (DIZ) (Streptococcus mutans [5]): 10 mm
- diameter of the inhibition zone (DIZ) (Pseudomonas sp.): inactive
- diameter of the inhibition zone (DIZ) (Escherichia coli): inactive
- diameter of the inhibition zone (DIZ) (Pseudomonas aeruginosa): inactive
- diameter of the inhibition zone (DIZ) (Klebsiella pneumoniae): inactive
- diameter of the inhibition zone (DIZ) (Scopulariopsis sp): inactive
- MIC (Bacillus flexus [6]): > 50 mg/L
- MIC (Clostridium sporogenes [7]): > 50 mg/L
- MIC (Streptococcus mutans [8]): > 50 mg/L
- MIC [9]: > 25 mg/L

Molecule: Clc1nccc2[nH]c(CC3CCCCC3)c(CN3CCOCC3)c12
- MIC (Staphylococcus aureus [1]): 35 mg/L (≈ 101 µM)
- diameter of the inhibition zone (DIZ) (Aspergillus terreus): inactive
- diameter of the inhibition zone (DIZ) (Staphylococcus aureus [2]): 20 mm
- diameter of the inhibition zone (DIZ) (Bacillus flexus [3]): 20 mm
- diameter of the inhibition zone (DIZ) (Clostridium sporogenes [4]): 20 mm
- diameter of the inhibition zone (DIZ) (Streptococcus mutans [5]): 20 mm
- diameter of the inhibition zone (DIZ) (Pseudomonas sp.): inactive
- diameter of the inhibition zone (DIZ) (Escherichia coli): inactive
- diameter of the inhibition zone (DIZ) (Pseudomonas aeruginosa): inactive
- diameter of the inhibition zone (DIZ) (Klebsiella pneumoniae): inactive
- diameter of the inhibition zone (DIZ) (Scopulariopsis sp): inactive
- MIC (Bacillus flexus [6]): 40 mg/L (≈ 115 µM)
- MIC (Clostridium sporogenes [7]): 40 mg/L (≈ 115 µM)
- MIC (Streptococcus mutans [8]): 30 mg/L (≈ 86.2 µM)
- MIC [9]: 25 mg/L (≈ 71.9 µM)
- inhibition at 72 h, 50 ug/ml [10]: 21.2%
- IC50 (HEK-293T): > 50 mg/L
- selectivity ratio [11]: 1 to 2

Molecule: CO[C@H]1/C=C/O[C@@]2(C)Oc3c(C)c(O)c4c(O)c(c(/C=N/N5CCN(C)CC5)c(O)c4c3C2=O)NC(=O)/C(C)=C\C=C\[C@H](C)[C@H](O)[C@@H](C)[C@@H](O)[C@@H](C)[C@H](OC(C)=O)[C@@H]1C [RIFAMPIN]
- MIC [9]: 0.02 mg/L (≈ 0.0243 µM)

Molecule: CC[C@@H](CO)NCCN[C@@H](CC)CO [ETHAMBUTOL]
- MIC [9]: 3.12 mg/L (≈ 15.3 µM)

Molecule: CN(CCc1ccccc1)Cc1c(CC2CCCCC2)[nH]c2ccnc(Cl)c12
- MIC (Staphylococcus aureus [1]): 10 mg/L (≈ 25.3 µM)
- diameter of the inhibition zone (DIZ) (Aspergillus terreus): inactive
- diameter of the inhibition zone (DIZ) (Staphylococcus aureus [2]): 32 mm
- diameter of the inhibition zone (DIZ) (Bacillus flexus [3]): 32 mm
- diameter of the inhibition zone (DIZ) (Clostridium sporogenes [4]): 32 mm
- diameter of the inhibition zone (DIZ) (Streptococcus mutans [5]): 32 mm
- diameter of the inhibition zone (DIZ) (Pseudomonas sp.): inactive
- diameter of the inhibition zone (DIZ) (Escherichia coli): inactive
- diameter of the inhibition zone (DIZ) (Pseudomonas aeruginosa): inactive
- diameter of the inhibition zone (DIZ) (Klebsiella pneumoniae): inactive
- diameter of the inhibition zone (DIZ) (Scopulariopsis sp): inactive
- MIC (Bacillus flexus [6]): 8 mg/L (≈ 20.2 µM)
- MIC (Clostridium sporogenes [7]): 9 mg/L (≈ 22.7 µM)
- MIC (Streptococcus mutans [8]): 10 mg/L (≈ 25.3 µM)
- MIC [9]: 6.25 mg/L (≈ 15.8 µM)
- inhibition at 72 h, 50 ug/ml [10]: 19.1%
- IC50 (HEK-293T): > 50 mg/L
- selectivity ratio [11]: > 16

Molecule: NYSTATIN
- inhibition zone (IZ) (Aspergillus terreus): 32 mm
- diameter of the inhibition zone (DIZ) (Staphylococcus aureus [2]): inactive
- diameter of the inhibition zone (DIZ) (Bacillus flexus [3]; Priestia flexa): inactive
- diameter of the inhibition zone (DIZ) (Clostridium sporogenes [4]): inactive
- diameter of the inhibition zone (DIZ) (Streptococcus mutans [5]): inactive
- diameter of the inhibition zone (DIZ) (Pseudomonas sp.): inactive
- diameter of the inhibition zone (DIZ) (Escherichia coli): inactive
- diameter of the inhibition zone (DIZ) (Pseudomonas aeruginosa): inactive
- diameter of the inhibition zone (DIZ) (Klebsiella pneumoniae): inactive
- inhibition zone (IZ) (Scopulariopsis sp): 32 mm

Molecule: NNC(=O)c1ccncc1 [ISONIAZID]
- MIC [9]: 0.36 mg/L (≈ 2.63 µM)

Molecule: OCCN1CCN(Cc2c(-c3ccccc3)[nH]c3ccnc(Cl)c23)CC1
- MIC (Staphylococcus aureus [1]): > 50 mg/L
- diameter of the inhibition zone (DIZ) (Aspergillus terreus): inactive
- diameter of the inhibition zone (DIZ) (Staphylococcus aureus [2]): 10 mm
- diameter of the inhibition zone (DIZ) (Bacillus flexus [3]): 10 mm
- diameter of the inhibition zone (DIZ) (Clostridium sporogenes [4]): 10 mm
- diameter of the inhibition zone (DIZ) (Streptococcus mutans [5]): 10 mm
- diameter of the inhibition zone (DIZ) (Pseudomonas sp.): inactive
- diameter of the inhibition zone (DIZ) (Escherichia coli): inactive
- diameter of the inhibition zone (DIZ) (Pseudomonas aeruginosa): inactive
- diameter of the inhibition zone (DIZ) (Klebsiella pneumoniae): inactive
- diameter of the inhibition zone (DIZ) (Scopulariopsis sp): inactive
- MIC (Bacillus flexus [6]): > 50 mg/L
- MIC (Clostridium sporogenes [7]): > 50 mg/L
- MIC (Streptococcus mutans [8]): > 50 mg/L
- MIC [9]: > 25 mg/L

Molecule: CN[C@@H]1[C@H](O[C@H]2[C@H](O[C@H]3[C@H](O)[C@@H](O)[C@H](N=C(N)N)[C@@H](O)[C@@H]3N=C(N)N)O[C@@H](C)[C@]2(O)C=O)O[C@@H](CO)[C@H](O)[C@H]1O [STREPTOMYCIN]
- MIC (Staphylococcus aureus [1]): 2 mg/L (≈ 3.44 µM)
- diameter of the inhibition zone (DIZ) (Aspergillus terreus): inactive
- diameter of the inhibition zone (DIZ) (Staphylococcus aureus [2]): 32 mm
- diameter of the inhibition zone (DIZ) (Bacillus flexus [3]): 32 mm
- diameter of the inhibition zone (DIZ) (Clostridium sporogenes [4]): 32 mm
- diameter of the inhibition zone (DIZ) (Streptococcus mutans [5]): 32 mm
- diameter of the inhibition zone (DIZ) (Pseudomonas sp.): 32 mm
- diameter of the inhibition zone (DIZ) (Escherichia coli): 32 mm
- diameter of the inhibition zone (DIZ) (Pseudomonas aeruginosa): 32 mm
- diameter of the inhibition zone (DIZ) (Klebsiella pneumoniae): 32 mm
- diameter of the inhibition zone (DIZ) (Scopulariopsis sp): inactive
- MIC (Bacillus flexus [6]): 1.5 mg/L (≈ 2.58 µM)
- MIC (Clostridium sporogenes [7]): 1 mg/L (≈ 1.72 µM)
- MIC (Streptococcus mutans [8]): 0.5 mg/L (≈ 0.86 µM)

Reference: ChEMBL document CHEMBL4038285, “Synthesis, molecular docking, antimycobacterial and antimicrobial evaluation of new pyrrolo[3,2-c]pyridine Mannich bases” (Eur J Med Chem, 2017)
